# Literature values as cited in US8229872B2, “Modeling and control for highly variable and nonlinear systems” (priority 2007, dated 2012).
# Test system: receptors of the neuromuscular junction
# Details: isolated cat anterior tibialis and sartorius muscles; ref [18]
smiles,measurement,value
COc1cc2c3cc1Oc1cc(ccc1O)C[C@@H]1c4c(cc(OC)c(O)c4Oc4ccc(cc4)C[C@@H]3N(C)CC2)CC[N+]1(C)C [tubocurarine],receptors that had to be blocked by the antagonist before block was noticeable,76±5%
same,receptors that had to be blocked for near complete blockade,92±16%
